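Test compounds were applied to cells in 96-well plates for 48 hours at 5 doses. TGI denotes the concentration required for complete inhibition of growth.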
tested on: KM12 colon; assay: growth of human tumour cells (NCI), 48 h

CC(NC(=O)OCc1ccccc1)NC(=O)OC(C)(C)C (stereo not drawn) and COc1nn(Cc2ccccn2)c2ccc([N+](=O)[O-])cc12 cannot be ordered by TGI: greater than 100 µM for the first, greater than 100 µM for the second.

Compared with O=C(Nc1ccc(Cl)cc1)c1cc(S(=O)(=O)Nc2n[nH]c(Nc3ccc4ccccc4c3)n2)c(SSc2cc(Cl)c(C(=O)Nc3ccc(Cl)cc3)cc2S(=O)(=O)Nc2n[nH]c(Nc3ccc4ccccc4c3)n2)cc1Cl, CC1=NN(c2ccccc2)C2(C1)C(Cl)C(=O)N2c1nc2ccccc2s1 (stereo not drawn) is higher in TGI: 50.4 µM for the first, greater than 100 µM for the second.

Cc1c(N=Nc2ccccc2)c(-c2ccccc2)n(C2OC(CO)C(O)C(O)C2O)c(=S)c1C#N (stereo not drawn) gave a TGI of 11.6 µM.

tested on: BT-549 breast; assay: growth of human tumour cells (NCI), 48 h

CC(=O)Nc1ccc(-c2nc3ccccc3s2)cc1Br and CC1=NN(c2ccccc2)C2(C1)C(Cl)C(=O)N2c1nc2ccccc2s1 (stereo not drawn) cannot be ordered by TGI: greater than 100 µM for the first, greater than 100 µM for the second.

CC(NC(=O)OCc1ccccc1)NC(=O)OC(C)(C)C (stereo not drawn) and COc1nn(Cc2ccccn2)c2ccc([N+](=O)[O-])cc12 cannot be ordered by TGI: greater than 100 µM for the first, greater than 100 µM for the second.

Going from O=C(Nc1ccc(Cl)cc1)c1cc(S(=O)(=O)Nc2n[nH]c(Nc3ccc4ccccc4c3)n2)c(SSc2cc(Cl)c(C(=O)Nc3ccc(Cl)cc3)cc2S(=O)(=O)Nc2n[nH]c(Nc3ccc4ccccc4c3)n2)cc1Cl to Cc1c(N=Nc2ccccc2)c(-c2ccccc2)n(C2OC(CO)C(O)C(O)C2O)c(=S)c1C#N (stereo not drawn), the TGI rises from 61.1 µM to greater than 100 µM.

tested on: CCRF-CEM leukemia; assay: growth of human tumour cells (NCI), 48 h

Compared with CC(=O)Nc1ccc(-c2nc3ccccc3s2)cc1Br, CC1=NN(c2ccccc2)C2(C1)C(Cl)C(=O)N2c1nc2ccccc2s1 (stereo not drawn) is lower in TGI: greater than 100 µM for the first, 48.8 µM for the second.

CC(NC(=O)OCc1ccccc1)NC(=O)OC(C)(C)C (stereo not drawn) and COc1nn(Cc2ccccn2)c2ccc([N+](=O)[O-])cc12 cannot be ordered by TGI: greater than 100 µM for the first, greater than 100 µM for the second.

In the case of O=C(Nc1ccc(Cl)cc1)c1cc(S(=O)(=O)Nc2n[nH]c(Nc3ccc4ccccc4c3)n2)c(SSc2cc(Cl)c(C(=O)Nc3ccc(Cl)cc3)cc2S(=O)(=O)Nc2n[nH]c(Nc3ccc4ccccc4c3)n2)cc1Cl, the TGI is reported as 43.6 µM.

tested on: SW-620 colon; assay: growth of human tumour cells (NCI), 48 h

CC(=O)Nc1ccc(-c2nc3ccccc3s2)cc1Br and CC1=NN(c2ccccc2)C2(C1)C(Cl)C(=O)N2c1nc2ccccc2s1 (stereo not drawn) cannot be ordered by TGI: greater than 100 µM for the first, greater than 100 µM for the second.

CC(NC(=O)OCc1ccccc1)NC(=O)OC(C)(C)C (stereo not drawn) and COc1nn(Cc2ccccn2)c2ccc([N+](=O)[O-])cc12 cannot be ordered by TGI: greater than 100 µM for the first, greater than 100 µM for the second.

Going from O=C(Nc1ccc(Cl)cc1)c1cc(S(=O)(=O)Nc2n[nH]c(Nc3ccc4ccccc4c3)n2)c(SSc2cc(Cl)c(C(=O)Nc3ccc(Cl)cc3)cc2S(=O)(=O)Nc2n[nH]c(Nc3ccc4ccccc4c3)n2)cc1Cl to Cc1c(N=Nc2ccccc2)c(-c2ccccc2)n(C2OC(CO)C(O)C(O)C2O)c(=S)c1C#N (stereo not drawn), the TGI falls from 49.8 µM to 24.2 µM (2.1-fold).

tested on: SNB-19 CNS; assay: growth of human tumour cells (NCI), 48 h

CC(=O)Nc1ccc(-c2nc3ccccc3s2)cc1Br and CC1=NN(c2ccccc2)C2(C1)C(Cl)C(=O)N2c1nc2ccccc2s1 (stereo not drawn) cannot be ordered by TGI: greater than 93.4 µM for the first, greater than 100 µM for the second.

CC(NC(=O)OCc1ccccc1)NC(=O)OC(C)(C)C (stereo not drawn) and COc1nn(Cc2ccccn2)c2ccc([N+](=O)[O-])cc12 cannot be ordered by TGI: greater than 100 µM for the first, greater than 100 µM for the second.

Compared with O=C(Nc1ccc(Cl)cc1)c1cc(S(=O)(=O)Nc2n[nH]c(Nc3ccc4ccccc4c3)n2)c(SSc2cc(Cl)c(C(=O)Nc3ccc(Cl)cc3)cc2S(=O)(=O)Nc2n[nH]c(Nc3ccc4ccccc4c3)n2)cc1Cl, Cc1c(N=Nc2ccccc2)c(-c2ccccc2)n(C2OC(CO)C(O)C(O)C2O)c(=S)c1C#N (stereo not drawn) is 1.8-fold lower in TGI: 50.4 µM for the first, 27.8 µM for the second.

tested on: MOLT-4 leukemia; assay: growth of human tumour cells (NCI), 48 h

First: CC(=O)Nc1ccc(-c2nc3ccccc3s2)cc1Br
Second: CC1=NN(c2ccccc2)C2(C1)C(Cl)C(=O)N2c1nc2ccccc2s1 (stereo not drawn)
The TGI of the first is higher: greater than 100 µM for the first, 78.6 µM for the second.

CC(NC(=O)OCc1ccccc1)NC(=O)OC(C)(C)C (stereo not drawn) and COc1nn(Cc2ccccn2)c2ccc([N+](=O)[O-])cc12 cannot be ordered by TGI: greater than 100 µM for the first, greater than 100 µM for the second.

First: O=C(Nc1ccc(Cl)cc1)c1cc(S(=O)(=O)Nc2n[nH]c(Nc3ccc4ccccc4c3)n2)c(SSc2cc(Cl)c(C(=O)Nc3ccc(Cl)cc3)cc2S(=O)(=O)Nc2n[nH]c(Nc3ccc4ccccc4c3)n2)cc1Cl
Second: Cc1c(N=Nc2ccccc2)c(-c2ccccc2)n(C2OC(CO)C(O)C(O)C2O)c(=S)c1C#N (stereo not drawn)
The TGI of the first is 1.7-fold higher: 42.3 µM for the first, 24.5 µM for the second.

tested on: HCT-116 colon; assay: growth of human tumour cells (NCI), 48 h

Going from CC(=O)Nc1ccc(-c2nc3ccccc3s2)cc1Br to CC1=NN(c2ccccc2)C2(C1)C(Cl)C(=O)N2c1nc2ccccc2s1 (stereo not drawn), the TGI falls from greater than 100 µM to 51.5 µM.

CC(NC(=O)OCc1ccccc1)NC(=O)OC(C)(C)C (stereo not drawn) and COc1nn(Cc2ccccn2)c2ccc([N+](=O)[O-])cc12 cannot be ordered by TGI: greater than 100 µM for the first, greater than 100 µM for the second.

In the case of O=C(Nc1ccc(Cl)cc1)c1cc(S(=O)(=O)Nc2n[nH]c(Nc3ccc4ccccc4c3)n2)c(SSc2cc(Cl)c(C(=O)Nc3ccc(Cl)cc3)cc2S(=O)(=O)Nc2n[nH]c(Nc3ccc4ccccc4c3)n2)cc1Cl, the TGI is reported as 39.5 µM.

tested on: SF-539 CNS; assay: growth of human tumour cells (NCI), 48 h

CC(=O)Nc1ccc(-c2nc3ccccc3s2)cc1Br and COc1nn(Cc2ccccn2)c2ccc([N+](=O)[O-])cc12 cannot be ordered by TGI: greater than 77.3 µM for the first, greater than 100 µM for the second.

First: CC(NC(=O)OCc1ccccc1)NC(=O)OC(C)(C)C (stereo not drawn)
Second: O=C(Nc1ccc(Cl)cc1)c1cc(S(=O)(=O)Nc2n[nH]c(Nc3ccc4ccccc4c3)n2)c(SSc2cc(Cl)c(C(=O)Nc3ccc(Cl)cc3)cc2S(=O)(=O)Nc2n[nH]c(Nc3ccc4ccccc4c3)n2)cc1Cl
The TGI of the first is higher: greater than 100 µM for the first, 60.5 µM for the second.

Reference: PubChem BioAssay (NCI)
